In PubChem BioAssay AID248 (DTP/NCI, 2004):
Several values for one entry are separate records, joined by “and”; a condition that tells them apart may be missing. Identical values can stand only once. Toxic doses and inconclusive results are not listed. No stated cut-off is given here; in the data, active means T/C of 150% or more; inactive means T/C below 125%.

System: L1210 leukemia ip in BDF1 mice, survival T/C
Experiment: NCI In Vivo Anticancer Drug Screen. Data for tumor model L1210 Leukemia (intraperitoneal) in B6D2F1 (BDF1) mice
Details: endpoint: mean survival time, higher = longer survival
How it was run: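 In this screen, tumor-bearing mice given compound are compared to those given vehicle, and their survival values are reported as a treated-to-control quotient.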

[1] = dose: 100.0 mg/kg/injection, schedule: Q04DX002 (ip), vehicle: saline with Tween-80
[2] = dose: 200.0 mg/kg/injection, schedule: Q04DX002 (ip), vehicle: saline with Tween-80
[3] = dose: 50.0 mg/kg/injection, schedule: Q01DX001 (ip), vehicle: saline
[4] = dose: 100.0 mg/kg/injection, schedule: Q01DX001 (ip), vehicle: saline
[5] = dose: 200.0 mg/kg/injection, schedule: Q01DX001 (ip), vehicle: saline
[6] = dose: 100.0 mg/kg/injection, schedule: Q04DX003 (ip), vehicle: saline
[7] = dose: 100.0 mg/kg/injection, schedule: Q01DX009 (ip), vehicle: saline with Tween-80
[8] = dose: 200.0 mg/kg/injection, schedule: Q01DX009 (ip), vehicle: saline with Tween-80
[9] = dose: 400.0 mg/kg/injection, schedule: Q01DX009 (ip), vehicle: saline with Tween-80
[10] = dose: 100.0 mg/kg/injection, schedule: Q04DX002 (ip), vehicle: Klucel (hydroxypropylcellulose) (HPC)
[11] = dose: 200.0 mg/kg/injection, schedule: Q04DX002 (ip), vehicle: Klucel (hydroxypropylcellulose) (HPC)
[12] = dose: 400.0 mg/kg/injection, schedule: Q04DX002 (ip), vehicle: Klucel (hydroxypropylcellulose) (HPC)
[13] = dose: 100.0 mg/kg/injection, schedule: Q01DX001 (ip), vehicle: carboxymethylcellulose (CMC)
[14] = dose: 200.0 mg/kg/injection, schedule: Q01DX001 (ip), vehicle: carboxymethylcellulose (CMC)
[15] = dose: 400.0 mg/kg/injection, schedule: Q01DX001 (ip), vehicle: carboxymethylcellulose (CMC)
[16] = dose: 100.0 mg/kg/injection, schedule: Q04DX003 (ip), vehicle: saline with Tween-80
[17] = dose: 200.0 mg/kg/injection, schedule: Q04DX003 (ip), vehicle: saline with Tween-80
[18] = dose: 400.0 mg/kg/injection, schedule: Q04DX003 (ip), vehicle: saline with Tween-80
[19] = dose: 100.0 mg/kg/injection, schedule: Q01DX009 (ip), vehicle: Klucel (hydroxypropylcellulose) (HPC)
[20] = dose: 200.0 mg/kg/injection, schedule: Q01DX009 (ip), vehicle: Klucel (hydroxypropylcellulose) (HPC)

Measured: T/C

OC(CC(O)(c1ccccc1)c1ccccc1)(c1ccccc1)c1ccccc1
inactive: dose: 9.5 mg/kg/injection, schedule: Q01DX001 (ip), vehicle: other 93 % of control | dose: 19.0 mg/kg/injection, schedule: Q01DX001 (ip), vehicle: other 96 % of control | dose: 38.0 mg/kg/injection, schedule: Q01DX001 (ip), vehicle: other 93 % of control

NC(N)=NC=O
inactive: [1] 105 % of control | [2] 98 % of control

NC1C2CC3CC1CC(C2)O3 (stereo unspecified)
inactive: dose: 25.0 mg/kg/injection, schedule: Q04DX002 (ip), vehicle: saline 103 % of control | dose: 50.0 mg/kg/injection, schedule: Q04DX002 (ip), vehicle: saline 106 % of control | dose: 100.0 mg/kg/injection, schedule: Q04DX002 (ip), vehicle: saline 106 % of control

CC(=O)OC1COC(n2cnc3c(=O)[nH]c(N)nc32)C(OC(C)=O)C1OC(C)=O (stereo unspecified)
inactive: [3] 104 % of control | [4] 104 % of control | [5] 95 % of control | dose: 400.0 mg/kg/injection, schedule: Q01DX001 (ip), vehicle: saline 93 % of control

O=C(CN1CCCCC1Cl)c1ccccc1 (stereo unspecified)
inactive: [4] 105 % of control | [6] 100 % of control

Cc1cc2ccccc2c(N)c1C#N
inactive: [7] 102 % of control and 106 % of control | [1] 93 % of control and 100 % of control | [8] 92 % of control and 90 % of control | [2] 91 % of control | [9] 95 % of control | dose: 400.0 mg/kg/injection, schedule: Q04DX002 (ip), vehicle: saline with Tween-80 100 % of control and 88 % of control

CCN(CC)CCn1c(=O)c2ccccc2c2ccccc21
inactive: [3] 108 % of control | dose: 50.0 mg/kg/injection, schedule: Q01DX009 (ip), vehicle: saline 106 % of control | dose: 50.0 mg/kg/injection, schedule: Q04DX003 (ip), vehicle: saline 103 % of control | [4] 104 % of control | [6] 111 % of control | dose: 200.0 mg/kg/injection, schedule: Q04DX003 (ip), vehicle: saline 107 % of control

O=C(C1CC1)C1OC1c1ccccc1 (stereo unspecified)
inactive: dose: 100.0 mg/kg/injection, schedule: Q01DX001 (ip), vehicle: Klucel (hydroxypropylcellulose) (HPC) 96 % of control | dose: 200.0 mg/kg/injection, schedule: Q01DX001 (ip), vehicle: Klucel (hydroxypropylcellulose) (HPC) 100 % of control | dose: 400.0 mg/kg/injection, schedule: Q01DX001 (ip), vehicle: Klucel (hydroxypropylcellulose) (HPC) 94 % of control

Cn1c(=O)c2c(nc(OCC3CCCO3)n2C)n(C)c1=O (stereo unspecified)
inactive: [4] 106 % of control | [5] 100 % of control

O=[N+]([O-])c1ccc(Cl)cc1/C=N/Nc1c2ccccc2nc2ccccc12
inactive: [4] 92 % of control

CCCCOC(=O)C(O)C(C)(Cl)c1ccccc1 (stereo unspecified)
inactive: [10] 106 % of control | [11] 103 % of control | [12] 106 % of control

O=c1[nH]c2ccccc2c2ccc(Cl)cc12
inactive: [13] 103 % of control | [14] 100 % of control | [15] 102 % of control

O=C(NO)C1CCC(C(=O)NO)CC1 (stereo unspecified)
inactive: [7] 92 % of control | [8] 89 % of control | [9] 89 % of control

CC(=O)Nc1cc2ccc3ccccc3c2c2ccccc12
inactive: dose: 75.0 mg/kg/injection, schedule: Q04DX002 (ip), vehicle: Klucel (hydroxypropylcellulose) (HPC) 102 % of control | dose: 150.0 mg/kg/injection, schedule: Q04DX002 (ip), vehicle: Klucel (hydroxypropylcellulose) (HPC) 97 % of control | dose: 300.0 mg/kg/injection, schedule: Q04DX002 (ip), vehicle: Klucel (hydroxypropylcellulose) (HPC) 97 % of control

O=C(CC(O)(C(F)(F)F)C(F)(F)F)c1ccccc1Br
inactive: [16] 97 % of control | [17] 97 % of control | [18] 95 % of control

CN(C)CCOC(=O)c1ccc(CCl)cc1
inactive: dose: 87.5 mg/kg/injection, schedule: Q01DX009 (ip), vehicle: saline 87 % of control | dose: 175.0 mg/kg/injection, schedule: Q01DX009 (ip), vehicle: saline 101 % of control

C=C(Br)CNC(=O)Nc1ccccc1
inactive: [16] 98 % of control | [17] 95 % of control | [18] 102 % of control

O=C1c2cccc(Cl)c2C(=O)c2c(Cl)cccc21
inactive: [10] 100 % of control and 91 % of control | [11] 94 % of control | [12] 102 % of control and 113 % of control

CCCCCCc1c(N)nc(N)[nH]c1=O
inactive: dose: 100.0 mg/kg/injection, schedule: Q01DX001 (ip), vehicle: saline with Tween-80 98 % of control | dose: 200.0 mg/kg/injection, schedule: Q01DX001 (ip), vehicle: saline with Tween-80 89 % of control | dose: 400.0 mg/kg/injection, schedule: Q01DX001 (ip), vehicle: saline with Tween-80 98 % of control

CC(CCNc1ccc(NCCC(C)CC(C)(C)C)cc1)CC(C)(C)C (stereo unspecified)
inactive: [19] 98 % of control | dose: 100.0 mg/kg/injection, schedule: Q04DX003 (ip), vehicle: Klucel (hydroxypropylcellulose) (HPC) 110 % of control | [20] 101 % of control | dose: 200.0 mg/kg/injection, schedule: Q04DX003 (ip), vehicle: Klucel (hydroxypropylcellulose) (HPC) 102 % of control | dose: 400.0 mg/kg/injection, schedule: Q04DX003 (ip), vehicle: Klucel (hydroxypropylcellulose) (HPC) 96 % of control

CCOC(=O)c1cnc2c(ccc3cc(OC)ccc32)c1NCCCN(CC)CC
inactive: dose: 50.0 mg/kg/injection, schedule: Q01DX009 (ip), vehicle: Klucel (hydroxypropylcellulose) (HPC) 105 % of control | [19] 108 % of control | [20] 94 % of control

C=C/C=C/CCN1CC1
inactive: dose: 12.5 mg/kg/injection, schedule: Q04DX003 (ip), vehicle: Klucel (hydroxypropylcellulose) (HPC) 114 % of control | dose: 25.0 mg/kg/injection, schedule: Q04DX003 (ip), vehicle: Klucel (hydroxypropylcellulose) (HPC) 112 % of control | dose: 50.0 mg/kg/injection, schedule: Q04DX003 (ip), vehicle: Klucel (hydroxypropylcellulose) (HPC) 106 % of control

Nc1nc(CBr)c(CCCCc2ccccc2)c(=O)[nH]1
inactive: dose: 37.5 mg/kg/injection, schedule: Q01DX001 (ip), vehicle: saline with Tween-80 100 % of control | dose: 75.0 mg/kg/injection, schedule: Q01DX001 (ip), vehicle: saline with Tween-80 101 % of control

CC(=S)SCC(C)C
inactive: dose: 50.0 mg/kg/injection, schedule: Q01DX001 (ip), vehicle: carboxymethylcellulose (CMC) 101 % of control | [13] 101 % of control | [14] 104 % of control | [15] 93 % of control

CS(=O)(=O)Oc1nn2c(OS(C)(=O)=O)nnc2s1
inactive: dose: 5.0 mg/kg/injection, schedule: Q01DX001 (ip), vehicle: saline 104 % of control | dose: 8.8 mg/kg/injection, schedule: Q01DX001 (ip), vehicle: saline 101 % of control and 90 % of control | dose: 10.0 mg/kg/injection, schedule: Q01DX001 (ip), vehicle: saline 109 % of control | dose: 13.3 mg/kg/injection, schedule: Q01DX001 (ip), vehicle: saline 98 % of control and 110 % of control | dose: 20.0 mg/kg/injection, schedule: Q01DX001 (ip), vehicle: saline 98 % of control and 104 % of control | dose: 30.0 mg/kg/injection, schedule: Q01DX001 (ip), vehicle: saline 104 % of control
